Data: patent US11879021B2, “Cyclic peptides and uses thereof” (UNIVERSITÉ DE MONTRÉAL, priority 2016, dated 2024)

Assays:
[1] = molecular target: T1, CD36 (Rattus norvegicus, UniProt Q07969); test: Competition binding of photoactivatable [125I]-Tyr-Bpa-Ala-Hexarelin to CD36 in rat cardiac membranes; details: competition with [125I]-Tyr-Bpa-Ala-Hexarelin, rat heart membranes; read-out: IC50 (μM), binding affinity for CD36
T1 construct: from tissue; host or cells: Heart (cardiac membranes) of Sprague Dawley rats from Charles River
T1 sequence (Q07969 whole entry): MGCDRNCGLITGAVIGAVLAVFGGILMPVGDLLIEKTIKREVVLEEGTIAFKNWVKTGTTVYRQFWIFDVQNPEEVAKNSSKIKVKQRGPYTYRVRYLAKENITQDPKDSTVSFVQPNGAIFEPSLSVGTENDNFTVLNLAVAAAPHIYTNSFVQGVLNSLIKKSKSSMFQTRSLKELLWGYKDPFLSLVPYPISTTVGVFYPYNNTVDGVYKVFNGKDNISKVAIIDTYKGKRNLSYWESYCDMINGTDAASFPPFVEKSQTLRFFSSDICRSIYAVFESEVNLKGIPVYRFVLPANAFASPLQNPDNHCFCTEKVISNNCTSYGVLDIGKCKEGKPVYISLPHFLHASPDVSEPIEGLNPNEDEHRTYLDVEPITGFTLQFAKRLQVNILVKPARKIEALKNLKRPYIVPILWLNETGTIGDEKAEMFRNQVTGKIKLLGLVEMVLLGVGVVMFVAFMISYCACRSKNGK
Method: Hearts from Sprague Dawley rats (300-325 g) from Charles River were cut into small pieces and homogenized with a Polytron® at low speed, 3×15 sec in buffer A (10 mM NaHCO3, 5 mM NaN3, 10 μM Pefabloc®, 0.1 μM Aprotinin, 1 μM Pepstatin A, 1 μM Leupeptin, pH 7.0) at a concentration of […] of tissue. The homogenate was first centrifuged at 8,700×g for 20 min in a Sorvall® centrifuge and the supernatant was collected on ice. The pellet was resuspended and re-homogenized with a Glass-Teflon® Potter by 5 strokes. This homogenate was recentrifuged at 8,700×g for 10 min and the resulting supernatant was combined with the first collected supernatant. The combined supernatant was centrifuged at 35,000×g for 20 min. The pellet fraction obtained was resuspended in Buffer B (20 mM Tris-maleate, 0.6M KCl, pH 6.8) in a volume corresponding to 20 mL/g of fresh tissue using a glass homogenizer with a Teflon pestle. The resulting suspension was centrifuged again at 35,000×g for 60 min. and the pellet fraction obtained was resuspended in Buffer C (10 mM Tris/HCl buffer pH 7.4) and thoroughly homogenized in a glass with a Teflon® pestle (20 ml/g of fresh tissue). This suspension was submitted to another centrifugation at 35,000×g for 60 min. The collected pellet was resuspended in 50 mM Tris/HCl buffer pH 7.4) containing 2 mM EGTA in a final volume corresponding to 1-2 mL/g of fresh tissue. The membrane preparation obtained was frozen at −80° C. Protein concentration was determined using the bicinchoninic acid (BCA) method, employing BSA as standard.
The reaction was started by adding 3 nmol of H2O2 for 5 min at room temperature. This step was repeated twice with a period of 5 min of incubation for each addition. The reaction was stopped by diluting the mixture with 1 mL of 0.1% TFA. The radioiodinated peptide was purified by HPLC on a reverse-phase Vydac® C18 column with a 60-min linear gradient from 20% to 50% of acetonitrile in 0.1% TFA. The eluted radiolabelled tracer was collected, aliquoted (50×10^6 cpm/fraction) and stored at −80° C.
Binding studies with MPE-298 were done with increasing concentrations from 0.01 to 5 μM of competition ligands. Nonspecific binding was defined as binding not displaced by 50 μM corresponding peptide. All peptide containing solutions were diluted in Buffer B. Buffer A and B were degassed under vacuum, and used in capped tubes in order to minimize lipid peroxidation. Before the incubation period, all tubes were put under a low flow of nitrogen. All material was kept on ice and the binding assay was performed in darkness. After an incubation period of 60 min at 22° C. (vortexing every 15 min), membranes were submitted to irradiation with UV lamps (365 nm) for 15 min at 4° C. After centrifugation at 12,000×g for 15 minutes, the pellets were resuspended in 40 μl of sample buffer (62 mM Tris-HCl, pH 6.8, 2% SDS, 10% glycerol, 15% 2-mercaptoethanol, and 0.05% bromophenol blue), and boiled for 5 min prior to being subjected to electrophoresis. Proteins (50 μg/40 μl) were separated on a 7.5% SDS-PAGE Bio-Rad® Mini-Protean electrophoresis system (150 V for 1 h). The gels resulting from SDS/PAGE were fixed, colored in Coomassie Brilliant Blue R-250, dried, exposed to a storage phosphor intensifying screen (Amersham Biosciences), and analysed using a Typhoon® PhosphorImager (GE Healthcare Life Sciences®). […] The curves were analysed by using software package (Graphpad® prism version 7.0).

[2] = system: R-FSL-1-induced IL-1β and TNF-α secretion in bone marrow-derived macrophages; test: IL-1β and TNF-α secretion in bone marrow-derived macrophages (BMDM) stimulated with R-FSL-1; assay type: cell-based, mice; details: murine BMDM primed with LPS, 10^−6 to 10^−11 M
Source text: Bone marrow-derived macrophages isolation and purification. Bone marrow-derived macrophages (BMDM) were isolated from the tibia and femur of 4-month-old C57Bl/6 mice. Mice were euthanized in a CO2 chamber individually. Tibia and femur were dissected from dead mice after removing the skin and the muscles and stored in cold DMEM before use. The bones are placed in Petri dishes containing sterile PBS and immersed in ice. In a laminar flow of culture, bones are immersed in 70% ethanol for one minute, and then rinsed in sterile PBS. Bones were cut in 2 pieces using sterile forceps and scissors and put in pierced 0.6 mL tubes which were put in 2 mL centrifuge tubes containing 200 μL of DMEM. After 1 min of centrifugation at 6500 RPM, pellets of bone marrow cells were gently resuspended and pooled in a 50 mL tube. Cells were counted and monocytes were purified from the bone marrow cells using the EasySep™ Mouse Monocyte Isolation Kit (StemCell Technologies, #19861) according to the manufacturer instructions. […] Statistical significance of data was analyzed by analysis of variance (ANOVA) with post-hoc comparisons using Dunnett's test with statistical software package (Graph Pad Prism version 7.0). […]

SMILES: C=CCN1CC#CCN(NC(=O)[C@H](C)N)C(=O)N[C@H](Cc2c[nH]c3ccccc23)C(=O)N[C@@H](C)C(=O)N[C@@H](Cc2c[nH]c3ccccc23)C(=O)N[C@H](Cc2ccccc2)C(=O)N[C@H](C(N)=O)CCCC1 [MPE-298]
- IC50 [1]: 0.07 µM
- secretion of IL-1β induced by R-FSL-1 [2]: able to inhibit
- secretion of TNF-α induced by R-FSL-1 [2]: able to inhibit
